Reference: the kinase profiling compilation of Christmann-Franck et al. (2016)

Tests used:
Assay in all cases: KINOMEscan competition binding
Conditions in all cases: compound 10.0 µM
[1] = tested on: ABL1 (human), P00519 [M351T]
AURKB (human) = AURKB (human) (UniProt Q96GD4)
CDC42BPA (human) = CDC42BPA (human) (UniProt Q5VT25)
CDK11B (human) = CDK11B (human) (UniProt P21127)
CDK3 (human) = CDK3 (human) (UniProt Q00526)
[2] = tested on: EIF2AK4 KD2 (human), Q9P2K8 [S808G]
EPHA6 (human) = EPHA6 (human) (UniProt Q9UF33)
EPHB1 (human) = EPHB1 (human) (UniProt P54762)
FGFR3 (human) = FGFR3 (human) (UniProt P22607)
[3] = tested on: KIT (human), P10721 [V559D/T670I]
LIMK2 (human) = LIMK2 (human) (UniProt P53671)
MAP3K4 (human) = MAP3K4 (human) (UniProt Q9Y6R4)
MAPKAPK5 (human) = MAPKAPK5 (human) (UniProt Q8IW41)
Sequence of MAPKAPK5 (human) (Q8IW41 whole entry, looked up): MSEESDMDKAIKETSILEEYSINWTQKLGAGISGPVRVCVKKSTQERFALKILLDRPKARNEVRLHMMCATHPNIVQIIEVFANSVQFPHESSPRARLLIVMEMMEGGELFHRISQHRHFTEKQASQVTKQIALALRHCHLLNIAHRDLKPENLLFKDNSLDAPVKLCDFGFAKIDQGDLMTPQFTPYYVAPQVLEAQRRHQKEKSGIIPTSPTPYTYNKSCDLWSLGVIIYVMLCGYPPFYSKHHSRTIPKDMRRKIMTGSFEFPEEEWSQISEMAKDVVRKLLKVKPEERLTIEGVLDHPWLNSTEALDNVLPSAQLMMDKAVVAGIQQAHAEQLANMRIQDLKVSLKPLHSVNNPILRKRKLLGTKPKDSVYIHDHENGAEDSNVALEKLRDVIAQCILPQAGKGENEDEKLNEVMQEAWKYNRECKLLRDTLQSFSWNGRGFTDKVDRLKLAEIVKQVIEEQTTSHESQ

MELK (human) = MELK (human) (UniProt Q14680)
MST1R (human) = MST1R (human) (UniProt Q04912)
NEK9 (human) = NEK9 (human) (UniProt Q8TD19)
NLK (human) = NLK (human) (UniProt Q9UBE8)
NUAK1 (human) = NUAK1 (human) (UniProt O60285)
PDPK1 (human) = PDPK1 (human) (UniProt O15530)
PHKG2 (human) = PHKG2 (human) (UniProt P15735)
PIM2 (human) = PIM2 (human) (UniProt Q9P1W9)
PIP4K2B (human) = PIP4K2B (human) (UniProt P78356)
PKN2 (human) = PKN2 (human) (UniProt Q16513)
PTK2 (human) = PTK2 (human) (UniProt Q05397)
Sequence of PTK2 (human) (Q05397 whole entry, looked up): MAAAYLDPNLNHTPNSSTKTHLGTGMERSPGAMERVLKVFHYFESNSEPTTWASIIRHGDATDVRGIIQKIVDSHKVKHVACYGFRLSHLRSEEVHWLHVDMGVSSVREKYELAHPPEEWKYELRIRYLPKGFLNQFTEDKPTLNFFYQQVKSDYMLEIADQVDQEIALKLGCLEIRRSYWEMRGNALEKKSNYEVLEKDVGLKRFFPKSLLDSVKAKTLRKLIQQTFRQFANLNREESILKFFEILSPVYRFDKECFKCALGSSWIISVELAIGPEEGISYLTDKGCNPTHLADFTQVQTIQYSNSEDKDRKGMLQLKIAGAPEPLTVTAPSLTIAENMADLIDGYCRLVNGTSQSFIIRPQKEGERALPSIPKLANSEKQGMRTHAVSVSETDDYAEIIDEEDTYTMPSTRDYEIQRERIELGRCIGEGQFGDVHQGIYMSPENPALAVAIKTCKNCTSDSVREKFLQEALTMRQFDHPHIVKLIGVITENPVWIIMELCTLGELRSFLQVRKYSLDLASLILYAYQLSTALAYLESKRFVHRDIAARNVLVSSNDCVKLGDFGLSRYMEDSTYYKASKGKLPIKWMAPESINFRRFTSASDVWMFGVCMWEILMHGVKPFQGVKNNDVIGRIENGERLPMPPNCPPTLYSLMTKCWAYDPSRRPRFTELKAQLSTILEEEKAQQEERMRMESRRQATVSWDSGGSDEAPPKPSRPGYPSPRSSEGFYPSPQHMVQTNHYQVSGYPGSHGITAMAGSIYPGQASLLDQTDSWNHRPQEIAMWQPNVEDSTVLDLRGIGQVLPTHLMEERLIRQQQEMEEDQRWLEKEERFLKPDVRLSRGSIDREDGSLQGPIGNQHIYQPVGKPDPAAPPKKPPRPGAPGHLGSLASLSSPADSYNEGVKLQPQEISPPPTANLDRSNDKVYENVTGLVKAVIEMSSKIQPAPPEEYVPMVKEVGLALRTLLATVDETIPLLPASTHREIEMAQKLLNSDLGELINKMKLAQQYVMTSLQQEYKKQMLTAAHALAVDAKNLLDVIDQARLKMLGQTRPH

RIOK2 (human) = RIOK2 (human) (UniProt Q9BVS4)
RPS6KA4 KD1 (human) = RPS6KA4 KD1 (human) (UniProt O75676)
Sequence of RPS6KA4 KD1 (human) (O75676 whole entry, looked up): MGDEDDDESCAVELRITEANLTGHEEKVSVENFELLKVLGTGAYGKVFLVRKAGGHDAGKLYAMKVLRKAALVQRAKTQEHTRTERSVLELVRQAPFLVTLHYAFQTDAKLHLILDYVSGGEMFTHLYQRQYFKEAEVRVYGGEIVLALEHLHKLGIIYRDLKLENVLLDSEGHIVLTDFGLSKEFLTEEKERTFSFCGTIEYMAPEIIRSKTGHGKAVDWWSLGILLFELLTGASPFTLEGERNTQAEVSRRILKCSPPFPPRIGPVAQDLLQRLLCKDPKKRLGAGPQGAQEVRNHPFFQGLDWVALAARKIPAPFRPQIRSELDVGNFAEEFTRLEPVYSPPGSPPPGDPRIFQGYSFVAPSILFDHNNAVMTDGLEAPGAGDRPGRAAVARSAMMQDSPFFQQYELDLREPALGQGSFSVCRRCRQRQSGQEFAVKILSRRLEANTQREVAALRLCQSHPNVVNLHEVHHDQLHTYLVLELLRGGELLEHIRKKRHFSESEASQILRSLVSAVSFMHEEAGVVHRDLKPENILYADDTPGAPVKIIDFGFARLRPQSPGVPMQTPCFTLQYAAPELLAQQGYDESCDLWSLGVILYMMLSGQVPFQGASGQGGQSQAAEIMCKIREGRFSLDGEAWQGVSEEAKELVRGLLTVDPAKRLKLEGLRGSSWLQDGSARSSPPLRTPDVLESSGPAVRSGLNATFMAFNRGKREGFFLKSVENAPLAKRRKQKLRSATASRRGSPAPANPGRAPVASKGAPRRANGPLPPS

SRC (human) = SRC (human) (UniProt P12931)
SRMS (human) = SRMS (human) (UniProt Q9H3Y6)
SRPK1 (human) = SRPK1 (human) (UniProt Q96SB4)
STK32B (human) = STK32B (human) (UniProt Q9NY57)
Sequence of STK32B (human) (Q9NY57 whole entry, looked up): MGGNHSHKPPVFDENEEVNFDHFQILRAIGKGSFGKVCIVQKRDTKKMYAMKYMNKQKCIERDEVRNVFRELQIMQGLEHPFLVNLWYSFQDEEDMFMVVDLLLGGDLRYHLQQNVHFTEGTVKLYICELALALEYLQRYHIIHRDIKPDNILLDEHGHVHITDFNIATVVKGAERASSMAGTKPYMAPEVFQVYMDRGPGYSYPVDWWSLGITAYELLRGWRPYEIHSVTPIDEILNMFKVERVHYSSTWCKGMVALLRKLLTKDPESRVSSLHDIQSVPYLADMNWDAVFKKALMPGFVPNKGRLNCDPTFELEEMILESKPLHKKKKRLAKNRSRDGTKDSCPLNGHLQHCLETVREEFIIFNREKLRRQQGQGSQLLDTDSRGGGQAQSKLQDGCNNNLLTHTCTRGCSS

TEC (human) = TEC (human) (UniProt P42680)
TGFBR2 (human) = TGFBR2 (human) (UniProt P37173)
[4] = target: TYK2 JH1 catalytic (human) (UniProt P29597)
Sequence of TYK2 JH1 catalytic (human) (P29597 whole entry, looked up): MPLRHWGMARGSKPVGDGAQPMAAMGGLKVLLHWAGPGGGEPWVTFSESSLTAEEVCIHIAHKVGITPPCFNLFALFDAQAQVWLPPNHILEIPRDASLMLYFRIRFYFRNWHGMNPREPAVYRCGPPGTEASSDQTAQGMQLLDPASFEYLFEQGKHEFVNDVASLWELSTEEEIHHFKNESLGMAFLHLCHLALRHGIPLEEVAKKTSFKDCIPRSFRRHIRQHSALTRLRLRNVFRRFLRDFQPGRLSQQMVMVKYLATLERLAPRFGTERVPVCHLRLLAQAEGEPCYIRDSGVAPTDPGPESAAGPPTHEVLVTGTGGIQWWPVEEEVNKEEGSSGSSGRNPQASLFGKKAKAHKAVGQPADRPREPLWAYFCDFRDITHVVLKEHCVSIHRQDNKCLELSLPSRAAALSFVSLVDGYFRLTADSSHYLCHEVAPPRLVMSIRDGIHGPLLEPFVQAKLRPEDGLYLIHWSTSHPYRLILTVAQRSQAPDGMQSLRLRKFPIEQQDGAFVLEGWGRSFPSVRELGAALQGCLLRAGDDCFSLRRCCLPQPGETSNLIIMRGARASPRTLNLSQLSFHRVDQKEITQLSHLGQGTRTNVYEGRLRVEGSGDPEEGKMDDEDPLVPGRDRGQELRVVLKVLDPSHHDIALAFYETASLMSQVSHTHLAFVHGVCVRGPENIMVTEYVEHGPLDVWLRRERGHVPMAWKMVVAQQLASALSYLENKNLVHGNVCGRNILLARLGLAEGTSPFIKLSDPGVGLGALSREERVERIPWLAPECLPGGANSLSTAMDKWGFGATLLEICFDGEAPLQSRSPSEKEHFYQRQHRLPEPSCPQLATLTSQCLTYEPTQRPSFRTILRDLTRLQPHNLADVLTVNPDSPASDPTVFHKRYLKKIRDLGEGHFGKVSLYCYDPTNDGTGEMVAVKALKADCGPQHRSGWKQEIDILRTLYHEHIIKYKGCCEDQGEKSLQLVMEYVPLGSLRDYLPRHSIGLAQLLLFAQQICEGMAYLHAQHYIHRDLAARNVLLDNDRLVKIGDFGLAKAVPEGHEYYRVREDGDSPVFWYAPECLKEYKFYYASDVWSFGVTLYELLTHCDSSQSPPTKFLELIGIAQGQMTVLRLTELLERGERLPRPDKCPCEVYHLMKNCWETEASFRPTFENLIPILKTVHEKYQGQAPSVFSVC

WEE2 (human) = WEE2 (human) (UniProt P0C1S8)
YES1 (human) = YES1 (human) (UniProt P07947)
ZAP70 (human) = ZAP70 (human) (UniProt P43403)
CDC2L2 (human) = CDC2L2 (human) (UniProt Q9UQ88)
[5] = tested on: FLT3 (human), P36888 [D835H]
[6] = tested on: FLT3 (human), P36888 [K663Q]
[7] = tested on: FLT3 (human), P36888 [N841I]
PRKCE (human) = PRKCE (human) (UniProt Q02156)
Sequence of PRKCE (human) (Q02156 whole entry, looked up): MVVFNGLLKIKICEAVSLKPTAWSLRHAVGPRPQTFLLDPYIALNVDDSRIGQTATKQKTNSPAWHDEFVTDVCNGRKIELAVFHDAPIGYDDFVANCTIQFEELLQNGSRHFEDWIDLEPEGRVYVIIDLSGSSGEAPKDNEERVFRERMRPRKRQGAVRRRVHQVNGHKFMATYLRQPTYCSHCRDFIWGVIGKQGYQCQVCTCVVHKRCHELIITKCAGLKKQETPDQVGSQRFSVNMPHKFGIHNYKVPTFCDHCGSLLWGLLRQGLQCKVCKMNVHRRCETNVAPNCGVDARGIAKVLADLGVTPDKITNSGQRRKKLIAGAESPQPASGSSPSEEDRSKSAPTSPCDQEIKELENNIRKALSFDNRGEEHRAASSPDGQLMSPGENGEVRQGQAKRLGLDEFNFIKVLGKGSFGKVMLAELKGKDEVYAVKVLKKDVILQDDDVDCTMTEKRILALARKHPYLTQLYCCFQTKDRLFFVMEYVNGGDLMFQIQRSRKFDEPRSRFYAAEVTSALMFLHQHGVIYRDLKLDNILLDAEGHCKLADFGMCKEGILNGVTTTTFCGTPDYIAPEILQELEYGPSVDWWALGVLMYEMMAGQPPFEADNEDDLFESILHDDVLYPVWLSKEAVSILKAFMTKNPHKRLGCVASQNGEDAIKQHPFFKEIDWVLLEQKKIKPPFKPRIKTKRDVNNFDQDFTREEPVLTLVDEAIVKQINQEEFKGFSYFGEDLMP

SIK1 (human) = SIK1 (human) (UniProt P57059)

Sequence of CDK3 (human) (Q00526 whole entry, looked up): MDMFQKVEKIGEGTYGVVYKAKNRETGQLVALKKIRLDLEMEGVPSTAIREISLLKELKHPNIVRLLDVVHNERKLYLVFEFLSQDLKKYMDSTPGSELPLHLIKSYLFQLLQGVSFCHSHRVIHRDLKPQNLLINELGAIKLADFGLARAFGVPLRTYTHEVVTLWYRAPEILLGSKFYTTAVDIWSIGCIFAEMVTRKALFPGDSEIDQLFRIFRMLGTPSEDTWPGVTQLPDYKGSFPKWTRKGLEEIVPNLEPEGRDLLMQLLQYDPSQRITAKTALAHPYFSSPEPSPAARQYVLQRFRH

## COc1cc(N2CCC(N3CCN(C)CC3)CC2)ccc1Nc1ncc(Cl)c(Nc2ccccc2S(=O)(=O)C(C)C)n1
[1]
  kinase still bound, per cent of control: 5%
AURKB (human)
  kinase still bound, per cent of control: 1%
CDC42BPA (human)
  kinase still bound, per cent of control: 40%
CDK11B (human)
  kinase still bound, per cent of control: 40%
CDK3 (human)
  kinase still bound, per cent of control: 40%
[2]
  kinase still bound, per cent of control: 4.5%
EPHA6 (human)
  kinase still bound, per cent of control: 3.1%
EPHB1 (human)
  kinase still bound, per cent of control: 0.1%
FGFR3 (human)
  kinase still bound, per cent of control: 2.6%
[3]
  kinase still bound, per cent of control: 0.95%
LIMK2 (human)
  kinase still bound, per cent of control: 6.5%
MAP3K4 (human)
  kinase still bound, per cent of control: 13%
MAPKAPK5 (human)
  kinase still bound, per cent of control: 40%
MELK (human)
  kinase still bound, per cent of control: 0.95%
MST1R (human)
  kinase still bound, per cent of control: 3%
NEK9 (human)
  kinase still bound, per cent of control: 3.3%
NLK (human)
  kinase still bound, per cent of control: 40%
NUAK1 (human)
  kinase still bound, per cent of control: 0.75%
PDPK1 (human)
  kinase still bound, per cent of control: 28%
PHKG2 (human)
  kinase still bound, per cent of control: 0%
PIM2 (human)
  kinase still bound, per cent of control: 40%
PIP4K2B (human)
  kinase still bound, per cent of control: 11%
PKN2 (human)
  kinase still bound, per cent of control: 3.2%
PTK2 (human)
  kinase still bound, per cent of control: 0%
RIOK2 (human)
  kinase still bound, per cent of control: 5.3%
RPS6KA4 KD1 (human)
  kinase still bound, per cent of control: 4.4%
SRC (human)
  kinase still bound, per cent of control: 0.2%
SRMS (human)
  kinase still bound, per cent of control: 0%
SRPK1 (human)
  kinase still bound, per cent of control: 2.2%
STK32B (human)
  kinase still bound, per cent of control: 0.2%
TEC (human)
  kinase still bound, per cent of control: 0.7%
TGFBR2 (human)
  kinase still bound, per cent of control: 2.7%
[4]
  kinase still bound, per cent of control: 0.45%
WEE2 (human)
  kinase still bound, per cent of control: 40%
YES1 (human)
  kinase still bound, per cent of control: 0.1%
ZAP70 (human)
  kinase still bound, per cent of control: 10%

## CCOc1cc(N2CCC(N3CCCCC3)CC2)ccc1Nc1nc(Nc2ccccc2S(=O)(=O)C(C)C)c2cn[nH]c2n1
[1]
  kinase still bound, per cent of control: 53%
AURKB (human)
  kinase still bound, per cent of control: 100%
CDC2L2 (human)
  kinase still bound, per cent of control: 100%
CDC42BPA (human)
  kinase still bound, per cent of control: 100%
CDK11B (human)
  kinase still bound, per cent of control: 100%
CDK3 (human)
  kinase still bound, per cent of control: 85%
[2]
  kinase still bound, per cent of control: 100%
EPHA6 (human)
  kinase still bound, per cent of control: 100%
EPHB1 (human)
  kinase still bound, per cent of control: 100%
FGFR3 (human)
  kinase still bound, per cent of control: 94%
[5]
  kinase still bound, per cent of control: 74%
[6]
  kinase still bound, per cent of control: 100%
[7]
  kinase still bound, per cent of control: 100%
[3]
  kinase still bound, per cent of control: 100%
LIMK2 (human)
  kinase still bound, per cent of control: 51%
MAP3K4 (human)
  kinase still bound, per cent of control: 100%
MAPKAPK5 (human)
  kinase still bound, per cent of control: 100%
MELK (human)
  kinase still bound, per cent of control: 92%
MST1R (human)
  kinase still bound, per cent of control: 100%
NEK9 (human)
  kinase still bound, per cent of control: 100%
NLK (human)
  kinase still bound, per cent of control: 97%
NUAK1 (human)
  kinase still bound, per cent of control: 100%
PDPK1 (human)
  kinase still bound, per cent of control: 100%
PHKG2 (human)
  kinase still bound, per cent of control: 21%
PIM2 (human)
  kinase still bound, per cent of control: 100%
PIP4K2B (human)
  kinase still bound, per cent of control: 100%
PKN2 (human)
  kinase still bound, per cent of control: 100%
PRKCE (human)
  kinase still bound, per cent of control: 62%
PTK2 (human)
  kinase still bound, per cent of control: 0.2%
RIOK2 (human)
  kinase still bound, per cent of control: 76%
RPS6KA4 KD1 (human)
  kinase still bound, per cent of control: 100%
SIK1 (human)
  kinase still bound, per cent of control: 100%
SRC (human)
  kinase still bound, per cent of control: 69%
SRMS (human)
  kinase still bound, per cent of control: 27%
SRPK1 (human)
  kinase still bound, per cent of control: 100%
STK32B (human)
  kinase still bound, per cent of control: 64%
TEC (human)
  kinase still bound, per cent of control: 98%
TGFBR2 (human)
  kinase still bound, per cent of control: 100%
[4]
  kinase still bound, per cent of control: 87%
WEE2 (human)
  kinase still bound, per cent of control: 100%
YES1 (human)
  kinase still bound, per cent of control: 84%
ZAP70 (human)
  kinase still bound, per cent of control: 32%

## CCN1CCN(Cc2ccc(NC(=O)c3ccc(C)c(/C=C/c4cnc(Nc5cc(N6CCNCC6)nc(C)n5)cn4)c3)cc2C(F)(F)F)CC1
[1]
  kinase still bound, per cent of control: 3.8%
AURKB (human)
  kinase still bound, per cent of control: 100%
CDC2L2 (human)
  kinase still bound, per cent of control: 69%
CDC42BPA (human)
  kinase still bound, per cent of control: 100%
CDK11B (human)
  kinase still bound, per cent of control: 78%
CDK3 (human)
  kinase still bound, per cent of control: 100%
[2]
  kinase still bound, per cent of control: 0.8%
EPHA6 (human)
  kinase still bound, per cent of control: 51%
EPHB1 (human)
  kinase still bound, per cent of control: 16%
FGFR3 (human)
  kinase still bound, per cent of control: 12%
[5]
  kinase still bound, per cent of control: 2.4%
[6]
  kinase still bound, per cent of control: 0.15%
[7]
  kinase still bound, per cent of control: 0%
[3]
  kinase still bound, per cent of control: 14%
LIMK2 (human)
  kinase still bound, per cent of control: 9.6%
MAP3K4 (human)
  kinase still bound, per cent of control: 2.5%
MAPKAPK5 (human)
  kinase still bound, per cent of control: 80%
MELK (human)
  kinase still bound, per cent of control: 25%
MST1R (human)
  kinase still bound, per cent of control: 85%
NEK9 (human)
  kinase still bound, per cent of control: 27%
NLK (human)
  kinase still bound, per cent of control: 65%
NUAK1 (human)
  kinase still bound, per cent of control: 98%
PDPK1 (human)
  kinase still bound, per cent of control: 100%
PHKG2 (human)
  kinase still bound, per cent of control: 100%
PIM2 (human)
  kinase still bound, per cent of control: 50%
PIP4K2B (human)
  kinase still bound, per cent of control: 83%
PKN2 (human)
  kinase still bound, per cent of control: 100%
PRKCE (human)
  kinase still bound, per cent of control: 68%
PTK2 (human)
  kinase still bound, per cent of control: 100%
RIOK2 (human)
  kinase still bound, per cent of control: 85%
RPS6KA4 KD1 (human)
  kinase still bound, per cent of control: 100%
SIK1 (human)
  kinase still bound, per cent of control: 3.6%
SRC (human)
  kinase still bound, per cent of control: 0.25%
SRMS (human)
  kinase still bound, per cent of control: 8.2%
SRPK1 (human)
  kinase still bound, per cent of control: 77%
STK32B (human)
  kinase still bound, per cent of control: 100%
TEC (human)
  kinase still bound, per cent of control: 24%
TGFBR2 (human)
  kinase still bound, per cent of control: 54%
[4]
  kinase still bound, per cent of control: 29%
WEE2 (human)
  kinase still bound, per cent of control: 83%
YES1 (human)
  kinase still bound, per cent of control: 1.4%
ZAP70 (human)
  kinase still bound, per cent of control: 15%

## CCN1CCN(Cc2ccc(NC(=O)c3ccc(C)c(Oc4ccnc5[nH]ccc45)c3)cc2C(F)(F)F)CC1
[1]
  kinase still bound, per cent of control: 0.35%
CDC2L2 (human)
  kinase still bound, per cent of control: 0.05%
CDK11B (human)
  kinase still bound, per cent of control: 0.35%
FGFR3 (human)
  kinase still bound, per cent of control: 9.4%
[5]
  kinase still bound, per cent of control: 1.2%
[6]
  kinase still bound, per cent of control: 0%
[7]
  kinase still bound, per cent of control: 0%
[3]
  kinase still bound, per cent of control: 0.05%
NLK (human)
  kinase still bound, per cent of control: 14%
PRKCE (human)
  kinase still bound, per cent of control: 20%
PTK2 (human)
  kinase still bound, per cent of control: 23%
SIK1 (human)
  kinase still bound, per cent of control: 5.3%
SRC (human)
  kinase still bound, per cent of control: 0.2%
SRMS (human)
  kinase still bound, per cent of control: 4.6%
YES1 (human)
  kinase still bound, per cent of control: 1.6%
